Assay results from US20030027870A1, “Fullerene derivatives that modulate nitric oxide synthase and clamodulin activity” (priority 2001, published 2003).

Legend:
[1] = target: T1, iNOS (Mus musculus, UniProt P29477); test: Citrulline formation assay, iNOS; type: biochemical, murine; conditions: read-out: IC50 for Inhibition of Citrulline Formation
T1 construct: Expression of iNOS was induced with 5 μg/mL of Escherichia coli lipopolysaccharide and 50 units/mL of mouse γ-interferon; endogenous in cells; host or cells: RAW 264.7 macrophages induced with LPS and interferon-gamma; enzyme purified on 2',5'-ADP-agarose and DEAE-cellulose
Experimental: Cytokine-inducible NOS was purified from murine RAW 264.7 macrophages grown in DMEM/Hepes, pH 7.5, supplemented with 10% fetal bovine serum. Expression of iNOS was induced with 5 μg/mL of Escherichia coli lipopolysaccharide and 50 units/mL of mouse γ-interferon. Homogeneous preparation of the iNOS was obtained through sequential purification on 2′,5′-ADP-agarose and DEAE-cellulose as described previously (Bryk, R. and Wolff, R. (1998) Biochemistry 37:4844-4852). Purified iNOS was about 95% pure as judged by a Coomassie-stained SDS-PAGE.
(§1) Citrulline formation by NOS isoforms was measured in 150 μL reaction mixtures containing 30 mM Hepes, pH 7.5, 1 mM DTT, 120 nM L-[2,3-^3H]-arginine without or with unlabeled arginine, 1 mM EGTA, 0.85 mM Ca^2+ (when present), 6 μM CaM (calmodulin, when present), 100 μM NADPH, and 300 μM BH4. Incubations were initiated by the addition of enzyme and reaction mixtures incubated for 30 min at 30° C. in duplicate and reactions stopped and analyzed as described by Wolff and Datto (Wolff and Datto, 1992). When citrulline formation was measured as a function of CaM concentration 1.5 mM Ca^2+ was employed in the assay Assay of NADPH-Oxidase Activity.

[2] = target: T2, nNOS (Rattus norvegicus, UniProt P29476); test: Citrulline formation assay, nNOS; type: biochemical; conditions: read-out: IC50 for Inhibition of Citrulline Formation
T2 construct: endogenous in cells; host or cells: rat GH3 pituitary cells; enzyme purified on 2',5'-ADP-agarose and calmodulin-Affi Gel 15 agarose
Experimental: (§2) Neuronal NOS was purified from rat GH3 pituitary cells grown in Ham's F-10 supplemented with 12.5% horse serum and 3% fetal bovine serum. Cells were homogenized in 5 volumes of 50 mM Mops, pH 7.4, 1 mM EGTA, 1 mM DTT, 100 mM NaCl, 0.5% CHAPSO, 50 μM BH4, 100 μM leupeptin, and 10 μM E64. A postmitochondrial supernatant fraction was generated by centrifugation and was affinity-purified on 2′,5′ADP-agarose as reported previously (Wolff, D. J. and Datto, G. (1992) Biochem. J. 284:201-206). The affinity-purified proteins were eluted with 50 mM Mops, pH 7.4, 1 mM EGTA, 1 mM DTT, 5 mM NADPH, 0.1% CHAPSO, 150 mM NaCl, 50 μM BH4, 100 μM leupeptin, and 10 μM E64. […] Fractions containing nNOS as determined by citrulline formation assay were concentrated with a Centriprep 30 (Amicon).
as §1, with “When citrulline formation was measured as a function of CaM concentration 1.5 mM Ca^2+ was employed in the assay Assay of NADPH-Oxidase Activity.” left out

[3] = target: T3, eNOS (Bos taurus, UniProt P29473); test: Citrulline formation assay, eNOS; type: biochemical, Bovine; conditions: read-out: IC50 for Inhibition of Citrulline Formation
T3 construct: Bovine pulmonary arterial endothelial NOS (ENOS) was prepared; from tissue; host or cells: bovine pulmonary arterial endothelium
Experimental: Bovine pulmonary arterial endothelial NOS (ENOS) was prepared and characterized as described previously (Wolff, D. J. et al. (1994) Arch. Biochem. Biophys. 312:360-366).
as §1

[4] = target: T2, nNOS; test: NADPH-oxidase activity (NADPH consumption) of nNOS; type: biochemical
Experimental: (§3) Neuronal NOS was purified from rat GH3 pituitary cells grown in Ham's F-10 supplemented with 12.5% horse serum and 3% fetal bovine serum. Cells were homogenized in 5 volumes of 50 mM Mops, pH 7.4, 1 mM EGTA, 1 mM DTT, 100 mM NaCl, 0.5% CHAPSO, 50 μM BH4, 100 μM leupeptin, and 10 μM E64. A postmitochondrial supernatant fraction was generated by centrifugation and was affinity-purified on 2′,5′ADP-agarose as reported previously (Wolff, D. J. and Datto, G. (1992) Biochem. J. 284:201-206). The affinity-purified proteins were eluted with 50 mM Mops, pH 7.4, 1 mM EGTA, 1 mM DTT, 5 mM NADPH, 0.1% CHAPSO, 150 mM NaCl, 50 μM BH4, 100 μM leupeptin, and 10 μM E64. The eluate was adjusted to contain 2.5 mM Ca^2+ and was adsorbed to a calmodulin-Affi Gel 15 agarose column equilibrated in 50 mM Mops, 1 mM EGTA, 2.5 mM Ca^2+ 0.1% CHAPSO, 150 mM NaCl, 25 μM arginine, 1 mM DTT, 50 μM BH4, 100 μM leupeptin, and 10 μM E64. The column was washed with equilibration buffer containing 500 mM NaCl but without arginine, and nNOS was eluted with equilibration buffer containing 2.5 mM EGTA but without Ca^2+ or arginine. Fractions containing nNOS as determined by citrulline formation assay were concentrated with a Centriprep 30 (Amicon).
Standard reaction mixtures of 1 mL volume in quartz cuvettes contained 50 mM Hepes, pH 7.4, 150 μM NADPH, 6 μM CaM, 1 mM EGTA, 0.85 mM Ca^2+ and 0.15 μM BH4. Reactions were initiated by the addition of nNOS enzyme and NADPH consumption was measured from the change in light absorbance at 340 nm as compared to an identical reference cuvette without enzyme using an extinction coefficient of 6.22 mM^−1 cm^−1.

[5] = target: T2, nNOS; test: NO formation assay (oxyhemoglobin to methemoglobin), nNOS; type: biochemical; conditions: multisite, positively cooperative inhibition of nNOS NO formation
Experimental: as §2
Nitric oxide production over time was measured spectrophotometrically at 401 nm by the conversion of oxyhemoglobin to methemoglobin (Noack, E. et al. (1992) Neuroprotocols 1:133-139). […] Methemoglobin formation was monitored against a reference cuvette containing complete reaction mixture without enzyme. NO production was calculated using an extinction coefficient of 38 mM^−1 cm^−1 (Noack et al.,1992).

[6] = target: T2, nNOS; test: Cytochrome c reductase assay of nNOS; type: biochemical; conditions: at concentrations as high as 300 μM
Experimental: as §3, with “The column was washed with equilibration buffer containing 500 mM NaCl but without arginine, and nNOS was eluted with equilibration buffer containing 2.5 mM EGTA but without Ca^2+ or arginine.” left out
The cytochrome c reductase activity of nNOS was determined as described previously, (Cooper et al. (2000) Arch. Biochem. Biophys. 375:183-194) in the presence of 1 mM EGTA, 2 mM Ca^2+, and 10 μg/ml CaM. An extinction coefficient of 21 mM^−1 cm^−1 (22) was used to quantify cytochrome c reduction.

[7] = target: T4, nNOS dimers (Rattus norvegicus, UniProt P29476); test: Sucrose density gradient centrifugation of nNOS; conditions: fully inhibitory concentrations
T4 construct: endogenous in cells; host or cells: rat GH3 pituitary cells
Experimental: Samples of nNOS were either unadjusted (control) or were adjusted to 50 μM C3-tris-malonyl-C60-fullerene and were applied to a 5-20% sucrose gradient containing 50 mM Mops, pH 7.4, 150 mM NaCl, 1 mM EGTA, 1 mM DTT, 0.3% CHAPSO, and 10 μM BH4, either without (control) or containing 50 μM C3-tris-malonyl-C60-fullerene. Gradients were run at 35,000 rpm for 18 h at 4° C. in an L5-L5 Beckman Ultracentrifuge using an SW41 rotor. Fractions (375 μL) were collected using an ISCO density gradient fractionator, Model 185. The fractions from the gradient were kept on ice and portions were assayed for cytochrome c reductase activity (measures both monomers and dimers) and citrulline forming activity (measures dimers exclusively). Hemoglobin (4.09S), catalyze (11.9S), and thyoglobulin (19.4S) were run in a separate tube as sedimentation markers.

[8] = target: T5, nNOS; test: CaM antagonists inhibiting citrulline formation by nNOS at 6 nM CaM; type: biochemical, rat; conditions: 30-min incubation
T5 construct: Bovine brain calmodulin was prepared; endogenous in cells; host or cells: rat GH3 pituitary cells (nNOS); bovine brain (calmodulin)

T4 sequence (P29476 whole entry): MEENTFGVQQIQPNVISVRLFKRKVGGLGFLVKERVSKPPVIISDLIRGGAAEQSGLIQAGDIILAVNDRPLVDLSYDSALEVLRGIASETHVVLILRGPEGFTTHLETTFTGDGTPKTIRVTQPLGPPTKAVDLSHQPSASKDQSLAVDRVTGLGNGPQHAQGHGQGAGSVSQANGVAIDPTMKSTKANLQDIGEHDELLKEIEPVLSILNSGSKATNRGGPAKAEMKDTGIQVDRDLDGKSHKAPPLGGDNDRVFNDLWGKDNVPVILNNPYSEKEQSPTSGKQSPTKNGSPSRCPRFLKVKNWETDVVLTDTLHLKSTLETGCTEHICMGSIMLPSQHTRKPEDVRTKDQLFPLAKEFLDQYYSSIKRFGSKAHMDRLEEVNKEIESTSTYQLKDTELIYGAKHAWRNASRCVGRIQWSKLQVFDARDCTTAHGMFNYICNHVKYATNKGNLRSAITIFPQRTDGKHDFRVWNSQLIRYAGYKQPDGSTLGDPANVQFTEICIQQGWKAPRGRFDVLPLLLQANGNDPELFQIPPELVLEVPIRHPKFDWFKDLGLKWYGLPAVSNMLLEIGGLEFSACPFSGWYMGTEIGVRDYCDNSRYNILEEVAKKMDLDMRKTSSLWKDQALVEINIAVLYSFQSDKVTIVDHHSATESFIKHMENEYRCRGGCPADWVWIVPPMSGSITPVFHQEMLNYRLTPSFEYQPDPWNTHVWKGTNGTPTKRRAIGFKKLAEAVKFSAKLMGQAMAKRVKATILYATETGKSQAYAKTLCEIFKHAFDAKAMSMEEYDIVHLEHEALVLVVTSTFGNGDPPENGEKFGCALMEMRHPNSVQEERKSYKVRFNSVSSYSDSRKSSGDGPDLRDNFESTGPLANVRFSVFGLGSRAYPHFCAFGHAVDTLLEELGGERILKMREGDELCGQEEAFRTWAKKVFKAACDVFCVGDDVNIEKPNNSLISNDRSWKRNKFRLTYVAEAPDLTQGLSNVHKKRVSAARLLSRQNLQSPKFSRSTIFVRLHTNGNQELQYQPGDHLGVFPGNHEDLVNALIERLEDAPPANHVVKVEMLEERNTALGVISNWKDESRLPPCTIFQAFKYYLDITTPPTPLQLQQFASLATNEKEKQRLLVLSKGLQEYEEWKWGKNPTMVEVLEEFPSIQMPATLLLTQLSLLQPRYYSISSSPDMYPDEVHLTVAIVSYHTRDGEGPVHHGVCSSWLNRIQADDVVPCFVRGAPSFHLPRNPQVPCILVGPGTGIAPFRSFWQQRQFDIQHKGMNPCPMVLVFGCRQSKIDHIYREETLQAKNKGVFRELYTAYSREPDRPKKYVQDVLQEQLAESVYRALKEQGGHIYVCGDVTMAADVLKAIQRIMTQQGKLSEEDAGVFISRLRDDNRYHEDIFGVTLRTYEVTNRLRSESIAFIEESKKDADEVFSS

| IC50 [8] | Molecule | IC50 [1] | IC50 [2] | IC50 [3] | inhibition of arginine-independent NADPH-oxidase activity of nNOS (in words) [4] | Hill coefficient of inhibition [5] | IC50 ([4]; arginine-independent) | effects on cytochrome c reductase activity of nNOS [6] | dissociation of nNOS dimers into monomers [7] |
| --- | --- | --- | --- | --- | --- | --- | --- | --- | --- |
|  | 1,2:34,35:40,41-tris(methano)[60] fullerene-61, 61, 62, 62, 63, 63 hexacarboxylic acid, (trans-3, trans-3, trans-3) D3 symmetry isomer [D3-Tris malonyl adduct diacid] | 317 µM | 86 µM | 143 µM | inhibited |  |  |  |  |
|  | 1,2:18,36:31,32-Tris(methano)[60] fullerene-61, 61, 62, 62, 63, 63 hexa-carboxylic acid, (e,e,e) C3 symmetry isomer [C3-Tris malonyl adduct diacid] | 123 µM | 24 µM | 17 µM | inhibited | 2.0 | 22 µM | no effects | did not produce a dissociation |
| 0.273 µM | Clc1ccc(C(c2ccc(Cl)cc2)n2cc[n+](CC(OCc3ccc(Cl)cc3Cl)c3ccc(Cl)cc3Cl)c2)cc1 (stereo not shown) [Calmidazolium] |  |  |  |  |  |  |  |  |
